Results on four compounds are retold here after ChEMBL document CHEMBL1201862, “PubChem BioAssay data set” (2004).

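Cells were grown in 96-well plates and exposed to each compound for 48 hours at five concentrations; endpoints were interpolated linearly between bracketing concentrations, or set to the highest concentration if not reached. GI50 is the concentration that inhibits growth by half.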 Active and inactive are the calls of the source. Rule as the data show it: active = GI50 up to about 1.1 µM and inactive = higher.

Test systems include HCC 2998; HCT-15; HT-29; SK-MEL-2; IGROV-1; MDA-MB-231; MOLT-4; CAKI-1; CCRF-CEM; K562; UACC-257; NCI-H23; M14; NCI/ADR-RES; LOX IMVI; RXF 393; SNB-19; EKVX; Malme-3M; OVCAR-5.
Holding throughout (experiment): growth of human tumour cells (NCI), 48 h

On to `CCOC(=O)[C@@H]1ON2OC(OC3CCCC3(c3ccccc3)c3ccccc3)C(OC(C)=O)[C@H]3OC(=O)[C@@H]1C32` (some centres not stated), for which the GI50 with HCC 2998 is 35.1 µM (inactive); with HCT-15, over 100 µM; with HT-29 it was 62.1 µM (inactive); with SK-MEL-2 it was 68.7 µM (inactive); in the test on IGROV-1, > 100 µM (inactive); in the test with MDA-MB-231 it was > 100 µM (inactive). The GI50 with MOLT-4 was 43.3 µM (inactive); in the test on CAKI-1, > 100 µM (inactive); in the test with CCRF-CEM, 29.2 µM (inactive); in the test on K562, 97.9 µM (inactive); in the test with UACC-257, 52.5 µM (inactive); in the test on NCI-H23, > 100 µM (inactive). Besides, the GI50 was 95.7 µM (inactive) in the test on M14; > 100 µM (inactive) with NCI/ADR-RES; 22.1 µM (inactive) in the test with LOX IMVI; 27.4 µM (inactive) in the test with RXF 393; > 100 µM (inactive) in the test with SNB-19; 89.7 µM (inactive) in the test on EKVX.
Regarding `Cn1c(=O)sc2cc(C(=S)N3CCN(c4ccccc4)CC3)ccc21`, the GI50 with HCT-15 was 39.4 µM; with HT-29 it was > 100 µM (inactive); in the test with SK-MEL-2, 56 µM (inactive); in the test on IGROV-1, 46.5 µM (inactive); in the test with MDA-MB-231, 27.6 µM (inactive); in the test with MOLT-4 it was > 100 µM (inactive). Also, the GI50 with CAKI-1 was > 100 µM (inactive); in the test with CCRF-CEM it was 40.7 µM (inactive); with K562 it was > 100 µM (inactive); in the test with UACC-257 it was > 100 µM (inactive); with NCI-H23, 34.1 µM (inactive); in the test with M14, > 100 µM (inactive). For the same compound, the GI50 was 50 µM (inactive) in the test with NCI/ADR-RES; 42.3 µM (inactive) in the test with Malme-3M; 97.1 µM (inactive) in the test on OVCAR-5; 53.5 µM (inactive) in the test with LOX IMVI; 30.5 µM (inactive) with RXF 393; 45.3 µM (inactive) in the test on SNB-19. Further, the GI50 with EKVX was 44.3 µM (inactive).
Consider `CC1(C)OC2COC3([C@@H]4OC(C)(C)O[C@@H]4CO)OC(C)(C)OC3C2O1` (some centres not stated), for which the GI50 was > 100 µM (inactive) with HCC 2998; over 100 µM in the test on HCT-15; > 100 µM (inactive) with SK-MEL-2; > 100 µM (inactive) in the test on IGROV-1; > 100 µM (inactive) with MDA-MB-231; > 100 µM (inactive) with CAKI-1. Besides, the GI50 with CCRF-CEM, in the test on K562, in the test with UACC-257, with NCI-H23, with M14 and with NCI/ADR-RES was > 100 µM (inactive) throughout. Besides, the GI50 in the test on OVCAR-5, in the test with LOX IMVI, with RXF 393, with SNB-19 and with EKVX was > 100 µM (inactive) throughout.
For the compound `Cc1nc2c(cc1C(=O)NN)c(=O)n(C)c(=O)n2C`, the GI50 is > 100 µM (inactive) with HCC 2998; over 100 µM in the test with HCT-15; > 100 µM (inactive) in the test on HT-29; > 100 µM (inactive) in the test on SK-MEL-2; > 100 µM (inactive) with IGROV-1; > 100 µM (inactive) in the test with MDA-MB-231. Moreover, the GI50 in the test with MOLT-4, in the test with CAKI-1, in the test on CCRF-CEM, in the test on K562, in the test with UACC-257 and with NCI-H23 was > 100 µM (inactive) throughout. Moreover, the GI50 with M14, in the test on NCI/ADR-RES, with OVCAR-5, in the test with RXF 393, in the test on SNB-19 and in the test on EKVX was > 100 µM (inactive) in each case.
